Key:
PTP1B = molecular target: T1, PTP1B (Homo sapiens, UniProt P18031); experiment: in vitro PTPase assay, GST/PTP1B; assay type: biochemical
T1 construct: purchased Upstate Biotechnology Inc. (Lake Placid, N.Y.)
Method: In vitro PTPase activities were measured using the commercial protein tyrosine phosphatase assay kit (Upstate Biotechnology, Inc. (“UBI”)) following established procedure known to one of skill in the art. This assay measures the in vitro dephosphorylation of a synthetic phosphotyrosine peptide of the sequence Arg-Arg-Leu-Ile-Glu-Asp-Ala-Gle-T- -yr-Ala-Ala-Arg-Gly, wherein the tyrosine is phosphorylated (SEQ ID NO: 3). Briefly, 0.01 μg of GST/PTPase fusion proteins was incubated in 50 μl of Tris buffer (10 mM Tris, pH 7.4) containing different concentrations of inhibitors or chemicals (0-1,000 μg/ml) at 22° C. for 10 minutes, followed by addition of 0.2 mM of the phosphotyrosine peptide and incubation at 22° C. for 18 hours. 100 μl of Malachite Green solution was added and incubated for 5 minutes, and the absorbance at 660 nm was measured after 5 minutes.
In vitro PTPase assays were used to determine the effects of levamisole (Sigma), pentamidine (American Pharmaceutical Partners, Inc.), and ketoconazole (Sigma) on recombinant PTPases, following established procedures (Pathak et al., J. Immunol. 167, 3391 (2001); Pathak et al., Leukemia 16, 2285 (2002), Yi et al., J. Immunol. 169, 5978 (2002)) using a synthetic phosphotyrosine peptide or DiFMUP as the substrate as detailed above in section I.A.2.

Renca cells = experiment: Renca cell growth, MTT; assay type: cell-based, murine; conditions: SSG 6.25-200 μg/ml, 6 days; listed as SSG
Text: Renca (Murphy, G. P., and W. J. Hrushesky. 1973. A murine renal cell carcinoma. J Natl Cancer Inst 50:1013), Jurkat (Gillis, S., and J. Watson. 1980. Biochemical and biological characterization of lymphocyte regulatory molecules. V. Identification of an interleukin 2-producing human leukemia T cell line. J Exp Med 152:1709) and WM9 (Forsberg, K., I. Valyi-Nagy, C. H. Heldin, M. Herlyn, and B. Westermark. 1993. Platelet-derived growth factor (PDGF) in oncogenesis: development of a vascular connective tissue stroma in xenotransplanted human melanoma producing PDGF-BB. Proc Natl Acad Sci USA 90:393) cell lines were obtained from a colleague at the Cleveland Clinic Foundation (CCF) and cultured in RPMI 1640 medium supplemented with 10% fetal calf serum (FCS). Recombinant IL-2 (Proleukin, 22 million IU/1.3 mg, Chiron, Emeryville, Calif.) was purchased from the CCF pharmacy. […] For cell growth inhibition assays, cells were cultured in absence or presence of various amounts of SSG for 6 days with viable cells quantified by MTT assays as described elsewhere (Pathak, M. K., and T. Yi. 2001. Sodium stibogluconate is a potent inhibitor of protein tyrosine phosphatases and augments cytokine responses in hemopoietic cell lines. J Immunol 167:3391).

Renca tumors = Renca tumors in Balb/c mice; assay type: in vivo; conditions: Balb/c mice, two weeks
Method: Balb/c and athymic nude Balb/c mice (10 weeks old, female, Taconic Farms, Germantown, N.Y.) were inoculated (s.c.) at the flanks with Renca cells (10^6 cells/site). Four days post-inoculation, the mice were subject to no treatment (Control) or treatment with IL-2 ([…]/daily for 5 days, i.p.), SSG (12 mg/daily, i.m. at hip regions) or the combination of the two agents for two weeks. […] The dose of SSG was similar to the effective daily dose of the drug for the treatment of murine leishmaniasis (Murray, H. W., J. D. Berman, and S. D. Wright. 1988. Immunochemotherapy for intracellular Leishmania donovani infection: gamma interferon plus pentavalent antimony. J Infect Dis 157:973). Tumor volume was measured during the study period and calculated using the formula for a prolate spheroid (V=4/3×a2b) (Lindner, D. J., E. C. Borden, and D. V. Kalvakolanu. 1997. Synergistic antitumor effects of a combination of interferons and retinoic acid on human tumor cells in vitro and in vivo. Clin Cancer Res 3:931). Student's t test was used for assessing the significance of tumor volume differences among differential treatment groups. Mouse viability (daily) and body weights (weekly) were also recorded during the study period. At the end of the study, Renca tumors and major internal organs (heart, kidney, liver, lung and spleen) were harvested for histology and immunohistochemistry analysis.

A549 = A549 cell growth, MTT; assay type: cell-based, human; conditions: 100 μg/ml, day 6
Method: (§1) NIH3T3 (Yi, et al., Blood 85, 87 (1995)), WM9 (Forsberg, et al., Proc. Nat. Acad Sci. USA 90, 393 (1993)), DU145 (Mickey, et al., Cancer Res. 37, 4049 (1977)), LoVo (Drewinko, et al., Cancer Res. 36, 467 (1976)), HEY (Buick, et al., Cancer Res. 45, 3668 (1985)), U251 (Yoshida, et al., Cancer 50, 410 (1982)), A549 (Giard, et al., J. Natl. Cancer Inst. 51, 1417 (1973)) and SK-N-SH (Helson, et al., Cancer Res. 35, 2594 (1975)) cell lines have been described and were cultured in RPMI 1640 supplemented with 10% fetal calf serum (FCS). For measurement of sodium stibogluconate effects on cell growth in vitro, cells were cultured in the absence (−) or presence (+) of various amounts of sodium stibogluconate for 6 days with viable cells quantified by MTT assays (Mosmann, J. Immunol. Methods 65, 55 (1983)). Percentages of growth inhibition by sodium stibogluconate were calculated (.+−.x%).

U251 = U251 cell growth, MTT; assay type: cell-based, human; conditions: 100 μg/ml, day 6
Method: as §1

DU145R cells = experiment: DU145R cell growth, MTT; assay type: cell-based, human; conditions: day 6 culture
Method: DU145 cells were cultured in the presence of sodium stibogluconate (100 μg/ml) in 48 well plates for 3 weeks. Cells from a well containing a single colony were transferred to flasks, cultured in sodium stibogluconate-free medium for 3 weeks and used as DU145R cells for further characterization. Growth of DU145R cells in the absence or presence of sodium stibogluconate in day 6 culture was determined by MTT assays. cDNAs of the coding region of PRLs were derived by RT-PCR from DU145 and DU145R cells and sequenced using primers described below.

[1] = standard dosage 10-20 mg/kg/day; cited from earlier work

T1 sequence (P18031 whole entry, species assumed): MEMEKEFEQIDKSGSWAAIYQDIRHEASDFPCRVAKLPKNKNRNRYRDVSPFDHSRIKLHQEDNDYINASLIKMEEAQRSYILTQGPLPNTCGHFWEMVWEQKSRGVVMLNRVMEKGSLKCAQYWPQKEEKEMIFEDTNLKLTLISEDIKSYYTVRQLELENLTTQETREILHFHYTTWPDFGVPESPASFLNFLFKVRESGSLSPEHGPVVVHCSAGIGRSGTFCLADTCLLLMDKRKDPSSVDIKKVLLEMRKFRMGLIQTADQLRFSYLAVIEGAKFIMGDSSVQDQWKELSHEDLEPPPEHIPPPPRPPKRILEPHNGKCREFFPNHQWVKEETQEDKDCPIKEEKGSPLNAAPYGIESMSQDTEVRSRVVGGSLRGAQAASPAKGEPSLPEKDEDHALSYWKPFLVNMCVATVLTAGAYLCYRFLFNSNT

O.O.O.O.O.O.O.O.O.O=C([O-])[C@@H]1[O][Sb]2([O-])([O][Sb]34([OH])[O][C@H]([C@H](O)CO)[C@H]([O]3)[C@H](C(=O)[O-])[O]4)[O][C@H]([C@H](O)CO)[C@@H]1[O]2.[Na+].[Na+].[Na+] [sodium stibogluconate]
inhibition of PTP1B compared with the three drugs (PTP1B): only modestly effective | Renca cell growth in culture (Renca cells): failed to inhibit Renca cell proliferation | tolerance of treatment (Renca tumors): tolerated well | cell killing of A549 (A549): near-complete cell killing | cell killing of U251 (U251): near-complete cell killing | growth of DU145R versus parental DU145 in presence of drug (DU145R cells): growth resistance | serum levels [1]: ≥ 10000 ng/mL
